Data as given in ChEMBL document CHEMBL3600292, “Anti-HIV screening for cell-penetrating peptides using chloroquine and identification of anti-HIV peptides derived from matrix proteins” (Bioorg Med Chem, 2015).
pEC50: −log10 of the molar value. Starred links: 1 amine or outer side, 2 acyl side, 3 side chain; linkers in the order of their positions; H or OH if unused. Positions of bridges follow the written chain, without caps; N, C: chain ends. Non-standard residues stand in square brackets, D forms with d. Residues, ends and D or L forms follow the SMILES beside them. Chains are numbered I, II in the order given. Orn = NCCC[C@H](N)C(=O)O; X1 = O=C(C[*:1])[*:2]

Experiments:
[1] = Cytotoxicity against human MT4 cells by MTT assay; type: cell-based
[2] = Cytotoxicity against human MT4 cells by MTT assay in presence of 5 uM of chloroquine; type: cell-based
[3] = test system: Human immunodeficiency virus 1; assay: Antiviral activity against T-cell line-tropic HIV1 NL4-3 infected in human MT4 cells assessed as inhibition of virus-induced cytopathogenicity after 5 days by MTT assay; type: functional, organism-based; conditions: Human immunodeficiency virus 1, NL4-3, MT4, 120 h
[4] = test system: Human immunodeficiency virus 1; assay: Antiviral activity against T-cell line-tropic HIV1 NL4-3 infected in human MT4 cells assessed as inhibition of virus-induced cytopathogenicity after 5 days by MTT assay in presence of 5 uM of chloroquine; type: functional, organism-based; conditions: Human immunodeficiency virus 1, NL4-3, MT4, 120 h
[5] = test system: Human immunodeficiency virus 1; assay: Antiviral activity against macrophage-tropic HIV1 NL(AD8) infected in human PM1 expressing CCR5 cells assessed as inhibition of virus-induced cytopathogenicity after 5 days by MTT assay in presence of 5 uM of chloroquine; type: functional, organism-based; conditions: Human immunodeficiency virus 1, NL(AD8), PM1/CCR5, 120 h
[6] = Cytotoxicity against human PM1 cells expressing CCR5 by MTT assay in presence of 5 uM of chloroquine; type: cell-based

Row | SMILES | CC50 [1] [µM] | CC50 [2] [µM] | pEC50 [3] | pEC50 [4] | pEC50 [5] | CC50 [6] [µM]
1 | CC[C@H](C)[C@H](NC(=O)[C@@H](NC(=O)[C@H](CC(N)=O)NC(=O)[C@H](Cc1ccc(O)cc1)NC(=O)[C@H](CC(C)C)NC(=O)[C@H](CO)NC(=O)[C@H](CCCNC(=N)N)NC(=O)[C@H](CC(C)C)NC(=O)[C@H](CCC(=O)O)NC(=O)[C@H](CCC(=O)O)NC(=O)[C@H](CO)NC(C)=O)[C@@H](C)O)C(=O)N[C@@H](C)C(=O)N[C@H](C(=O)N[C@@H](CC(C)C)C(=O)N[C@@H](Cc1ccc(O)cc1)C(=O)NCC(=O)N[C@@H](CSCC(=O)N[C@@H](CCCNC(=N)N)C(=O)N[C@@H](CCCNC(=N)N)C(=O)N[C@@H](CCCNC(=N)N)C(=O)N[C@@H](CCCNC(=N)N)C(=O)N[C@@H](CCCNC(=N)N)C(=O)N[C@@H](CCCNC(=N)N)C(=O)N[C@@H](CCCNC(=N)N)C(=O)N[C@@H](CCCNC(=N)N)C(N)=O)C(N)=O)C(C)C | 10 | 8.7 | < 5.00 | < 5.06 | < 4.89 | 13
2 | CC[C@H](C)[C@H](NC(=O)[C@@H](NC(=O)[C@H](CC(N)=O)NC(=O)[C@H](Cc1ccc(O)cc1)NC(=O)[C@H](CC(C)C)NC(=O)[C@H](CO)NC(=O)[C@H](CCCNC(=N)N)NC(=O)[C@H](CC(C)C)NC(=O)[C@H](CCC(=O)O)NC(=O)[C@H](CCC(=O)O)NC(C)=O)[C@@H](C)O)C(=O)N[C@@H](C)C(=O)N[C@H](C(=O)N[C@@H](CC(C)C)C(=O)N[C@@H](Cc1ccc(O)cc1)C(=O)N[C@@H](CO)C(=O)NCC(=O)N[C@@H](CSCC(=O)N[C@@H](CCCNC(=N)N)C(=O)N[C@@H](CCCN)C(=O)N[C@@H](CCCNC(=N)N)C(=O)N[C@@H](CCCN)C(=O)N[C@@H](CCCNC(=N)N)C(=O)N[C@@H](CCCN)C(=O)N[C@@H](CCCNC(=N)N)C(=O)N[C@@H](CCCN)C(N)=O)C(N)=O)C(C)C | 9.3 | 10 | < 5.03 | < 5.00 | < 5.03 | 9.3
3 | CC[C@H](C)[C@H](NC(=O)[C@@H](NC(=O)[C@H](CC(N)=O)NC(=O)[C@H](Cc1ccc(O)cc1)NC(=O)[C@H](CC(C)C)NC(=O)[C@H](CO)NC(=O)[C@H](CCCNC(=N)N)NC(=O)[C@H](CC(C)C)NC(=O)[C@H](CCC(=O)O)NC(C)=O)[C@@H](C)O)C(=O)N[C@@H](C)C(=O)N[C@H](C(=O)N[C@@H](CC(C)C)C(=O)N[C@@H](Cc1ccc(O)cc1)C(=O)N[C@@H](CO)C(=O)N[C@H](C(=O)NCC(=O)N[C@@H](CSCC(=O)N[C@@H](CCCNC(=N)N)C(=O)N[C@@H](CCCN)C(=O)N[C@@H](CCCNC(=N)N)C(=O)N[C@@H](CCCN)C(=O)N[C@@H](CCCNC(=N)N)C(=O)N[C@@H](CCCN)C(=O)N[C@@H](CCCNC(=N)N)C(=O)N[C@@H](CCCN)C(N)=O)C(N)=O)C(C)C)C(C)C | 7.7 | 8.1 | < 5.11 | 5.35 | 5.64 | 8.4
4 | CC[C@H](C)[C@H](NC(=O)[C@@H](NC(=O)[C@H](CC(N)=O)NC(=O)[C@H](Cc1ccc(O)cc1)NC(=O)[C@H](CC(C)C)NC(=O)[C@H](CO)NC(=O)[C@H](CCCNC(=N)N)NC(=O)[C@H](CC(C)C)NC(C)=O)[C@@H](C)O)C(=O)N[C@@H](C)C(=O)N[C@H](C(=O)N[C@@H](CC(C)C)C(=O)N[C@@H](Cc1ccc(O)cc1)C(=O)N[C@@H](CO)C(=O)N[C@H](C(=O)N[C@@H](Cc1c[nH]cn1)C(=O)NCC(=O)N[C@@H](CSCC(=O)N[C@@H](CCCNC(=N)N)C(=O)N[C@@H](CCCN)C(=O)N[C@@H](CCCNC(=N)N)C(=O)N[C@@H](CCCN)C(=O)N[C@@H](CCCNC(=N)N)C(=O)N[C@@H](CCCN)C(=O)N[C@@H](CCCNC(=N)N)C(=O)N[C@@H](CCCN)C(N)=O)C(N)=O)C(C)C)C(C)C | 8.5 | 10 | < 5.07 | 5.34 | < 5.28 | 5.2
5 | CC[C@H](C)[C@H](NC(=O)[C@H](CCCCN)NC(=O)[C@@H](NC(=O)[C@H](CCC(N)=O)NC(=O)[C@H](CCCNC(=N)N)NC(=O)[C@H](C)NC(=O)[C@H](Cc1c[nH]cn1)NC(C)=O)[C@@H](C)O)C(=O)N[C@@H](Cc1ccc(O)cc1)C(=O)N[C@H](C(=O)N[C@H](C(=O)N[C@@H](CC(=O)O)C(=O)N[C@H](C(=O)N[C@@H](CC(C)C)C(=O)N[C@@H](CO)C(=O)N[C@H](C(=O)NCC(=O)N[C@@H](CSCC(=O)N[C@@H](CCCNC(=N)N)C(=O)N[C@@H](CCCN)C(=O)N[C@@H](CCCNC(=N)N)C(=O)N[C@@H](CCCN)C(=O)N[C@@H](CCCNC(=N)N)C(=O)N[C@@H](CCCN)C(=O)N[C@@H](CCCNC(=N)N)C(=O)N[C@@H](CCCN)C(N)=O)C(N)=O)C(C)C)C(C)C)C(C)C)[C@@H](C)CC (I: Ac-HARQTKIYIVDVLSVGC-NH2 / II: R[Orn]R[Orn]R[Orn]R[Orn]-NH2; linker I:17-II:N via X1) | 8.2 | 8.2 | < 5.09 | < 5.09 | < 5.06 | 8.7
6 | CC[C@H](C)[C@H](NC(=O)[C@H](CCCNC(=N)N)NC(=O)[C@H](CCC(N)=O)NC(=O)[C@H](Cc1c[nH]cn1)NC(=O)[C@@H](NC(=O)[C@H](CO)NC(=O)[C@H](Cc1ccc(O)cc1)NC(=O)[C@H](CC(C)C)NC(=O)[C@@H](NC(=O)[C@H](C)NC(=O)[C@@H](NC(=O)[C@@H](NC(=O)[C@H](CC(N)=O)NC(=O)[C@H](Cc1ccc(O)cc1)NC(=O)[C@H](CC(C)C)NC(C)=O)[C@@H](C)O)[C@@H](C)CC)C(C)C)C(C)C)C(=O)NCC(=O)N[C@@H](CSCC(=O)N[C@@H](CCCNC(=N)N)C(=O)N[C@@H](CCCN)C(=O)N[C@@H](CCCNC(=N)N)C(=O)N[C@@H](CCCN)C(=O)N[C@@H](CCCNC(=N)N)C(=O)N[C@@H](CCCN)C(=O)N[C@@H](CCCNC(=N)N)C(=O)N[C@@H](CCCN)C(N)=O)C(N)=O (I: Ac-LYNTIAVLYSVHQRIGC-NH2 / II: R[Orn]R[Orn]R[Orn]R[Orn]-NH2; linker I:17-II:N via X1) | 11 | 12 | 5.20 | 6.19 | 5.55 | 8.7
7 | CC[C@H](C)[C@H](NC(=O)[C@H](CCCNC(=N)N)NC(=O)[C@H](CCC(N)=O)NC(=O)[C@H](Cc1c[nH]cn1)NC(=O)[C@@H](NC(=O)[C@H](CO)NC(=O)[C@H](Cc1ccc(O)cc1)NC(=O)[C@H](CC(C)C)NC(=O)[C@@H](NC(=O)[C@H](C)NC(=O)[C@@H](NC(=O)[C@@H](NC(=O)[C@H](CC(N)=O)NC(C)=O)[C@@H](C)O)[C@@H](C)CC)C(C)C)C(C)C)C(=O)N[C@@H](CC(=O)O)C(=O)N[C@H](C(=O)NCC(=O)N[C@@H](CSCC(=O)N[C@@H](CCCNC(=N)N)C(=O)N[C@@H](CCCN)C(=O)N[C@@H](CCCNC(=N)N)C(=O)N[C@@H](CCCN)C(=O)N[C@@H](CCCNC(=N)N)C(=O)N[C@@H](CCCN)C(=O)N[C@@H](CCCNC(=N)N)C(=O)N[C@@H](CCCN)C(N)=O)C(=O)O)C(C)C (I: Ac-NTIAVLYSVHQRIDVGC-OH / II: R[Orn]R[Orn]R[Orn]R[Orn]-NH2; linker I:17-II:N via X1) | 18 | 18 | < 4.74 | 5.70 | 5.25 | 17
8 | CC[C@H](C)[C@H](NC(=O)[C@@H](NC(=O)[C@H](CC(N)=O)NC(=O)[C@H](Cc1ccc(O)cc1)NC(=O)[C@H](CC(C)C)NC(=O)[C@H](CO)NC(=O)[C@H](CCCNC(=N)N)NC(C)=O)[C@@H](C)O)C(=O)N[C@@H](C)C(=O)N[C@H](C(=O)N[C@@H](CC(C)C)C(=O)N[C@@H](Cc1ccc(O)cc1)C(=O)N[C@@H](CO)C(=O)N[C@H](C(=O)N[C@@H](Cc1cnc[nH]1)C(=O)N[C@@H](CCC(N)=O)C(=O)NCC(=O)N[C@@H](CSCC(=O)N[C@@H](CCCNC(=N)N)C(=O)N[C@@H](CCCN)C(=O)N[C@@H](CCCNC(=N)N)C(=O)N[C@@H](CCCN)C(=O)N[C@@H](CCCNC(=N)N)C(=O)N[C@@H](CCCN)C(=O)N[C@@H](CCCNC(=N)N)C(=O)N[C@@H](CCCN)C(N)=O)C(N)=O)C(C)C)C(C)C (I: Ac-RSLYNTIAVLYSVHQGC-NH2 / II: R[Orn]R[Orn]R[Orn]R[Orn]-NH2; linker I:17-II:N via X1) | 9.2 | 9.2 | 5.28 | 6.07 | 5.89 | 8.2
9 | CC[C@H](C)[C@H](NC(=O)[C@@H](NC(=O)[C@H](CC(N)=O)NC(=O)[C@H](Cc1ccc(O)cc1)NC(=O)[C@H](CC(C)C)NC(=O)[C@H](CO)NC(C)=O)[C@@H](C)O)C(=O)N[C@@H](C)C(=O)N[C@H](C(=O)N[C@@H](CC(C)C)C(=O)N[C@@H](Cc1ccc(O)cc1)C(=O)N[C@@H](CO)C(=O)N[C@H](C(=O)N[C@@H](Cc1c[nH]cn1)C(=O)N[C@@H](CCC(N)=O)C(=O)N[C@@H](CCCNC(=N)N)C(=O)NCC(=O)N[C@@H](CSCC(=O)N[C@@H](CCCNC(=N)N)C(=O)N[C@@H](CCCN)C(=O)N[C@@H](CCCNC(=N)N)C(=O)N[C@@H](CCCN)C(=O)N[C@@H](CCCNC(=N)N)C(=O)N[C@@H](CCCN)C(=O)N[C@@H](CCCNC(=N)N)C(=O)N[C@@H](CCCN)C(N)=O)C(N)=O)C(C)C)C(C)C (I: Ac-SLYNTIAVLYSVHQRGC-NH2 / II: R[Orn]R[Orn]R[Orn]R[Orn]-NH2; linker I:17-II:N via X1) | 4.8 | 4.4 | < 5.32 | 6.00 | < 5.34 | 4.6
